From patent publication US10852302B2, “Method for evaluation of function of phagocyte” (MOCHIDA PHARMACEUTICAL CO., LTD., priority 2008, dated 2020)

Columns and labels:
Type in all cases: cell-based
[1] = tested on: human peripheral blood granulocyte; assay: Action of phagocytosis inhibitors on sCD14-ST production by human granulocyte stimulated with E. coli; settings: inhibitor preincubated 37° C. 1 hour, then 30 times by cell count of E. coli, 2 hours (FIG. 9)
Experimental: Granulocyte fraction was prepared from peripheral blood collected from a healthy human donor by density-gradient centrifugation using two layers each having a specific gravity of d=1.077 and d=1.119.
Various leukocyte stimulants were added to the granulocyte to evaluate the amount of sCD14-ST produced. More specifically, human peripheral blood granulocyte collected in Example 7-(1) was suspended in RPMI1640 culture containing 10% healthy human serum, 2 mM Glutamin, 10 mM HEPES, and 10 ng/ml G-CSF (SIGMA R8758) to a cell concentration of 0.5×10^7 cells/mL, and added to the wells of a 96 well culture plate (Nunclon Surface, Nunc) at 100 μL/well. The granulocyte was incubated overnight at 37° C. in the presence of 5% carbon dioxide. Next, various stimulants were adjusted to 1.5 fold concentration with HBSS buffer containing 10% healthy human serum, 2 mM Glutamin, and 10 mM HEPES, and added to the well at 200 μL/well. After incubating at 37° C. for 2 hours, the supernatant was collected by centrifugation, and human sCD14-ST was measured by using the assay kit described in Example 7-(3) of WO 2005/108429. More specifically, the sandwich assay kit used was the one containing the antibody which binds to the peptide consisting the amino acid sequence of 53rd to 68th amino acid residue of the human CD14 (S68 antibody), which specifically recognizes the human sCD14-ST. […]

[2] = tested on: granulocyte from rabbit peritoneal cavity; assay: Action of phagocytosis inhibitors on sCD14-ST production by rabbit granulocyte stimulated with E. coli; settings: inhibitor preincubated 37° C. 30 minutes, then 20 times by cell count of E. coli, 2 hours (FIG. 6)
Experimental: (§1) Two step sandwich ELISA system was constructed by using the F1301-9-1 antibody produced in Example 1-(4) for the solid phase antibody, and the F1258-7-2 Fab′-HRP antibody prepared in Example 3-(1) for the labeling antibody. More specifically, the F1301-9-1 antibody was diluted with D-PBS (pH 7.4) to 10 μg/mL, and added to the wells of immunoplate (Maxisorb, Nunc) at 50 μL/well. After allowing the reaction to proceed overnight at 4° C., the well was washed 5 times with ion exchanged water. D-PBS (pH 7.4) containing 5% StabilGuard (SurModics) and 0.1% Tween 20 was added to the wells at 200 μL/well for blocking. Next, the specimen was diluted by using 150 mM phosphate buffer (pH 6.0) containing 5% normal rabbit serum (serum from which soluble CD14 antigen has been removed by using the rabbit CD14 affinity antibody column), 1% BSA, and 0.1% Tween 20 for dilution, and the diluted specimen was added to the well at 50 μL/well and allowed to react at 25° C. for 3 hours. After completion of the reaction, the well was washed 5 times with physiological saline containing 0.05% Tween 20. The F1258-7-2 Fab′-HRP was diluted with 75 mM phosphate buffer (pH 6.4) containing 4% rat serum and 0.05% Tween 20, and added to the well at 50 μL/well. […] The reaction was ceased with 0.5M sulfuric acid solution, and absorbance at 450 nm was measured by using a plate spectrophotometer (NJ-2100, Intermed Japan). […]

[3] = tested on: granulocyte from the rabbit peritoneal cavity; assay: High molecular weight sCD14 production by rabbit granulocyte stimulated with leukocyte stimulants; settings: stimulant, kit for high molecular weight sCD14 (R&D) (FIG. 5)
[4] = tested on: granulocyte from the rabbit peritoneal cavity; assay: sCD14-ST production by rabbit peritoneal granulocyte stimulated with leukocyte stimulants; settings: rabbit granulocyte 1×10^7 cells/mL, stimulant, 37° C. for 2 hours, supernatant, sandwich ELISA (FIG. 4)
Experimental: as §1, with “hours.” for “hours. After completion of the reaction, the well was washed 5 times with physiological saline containing 0.05% Tween 20. The F1258-7-2 Fab′-HRP was diluted with 75 mM phosphate buffer (pH 6.4) containing 4% rat serum and 0.05% Tween 20, and added to the well at 50 μL/well.”
Various leukocyte stimulants were added to the granulocyte to evaluate the amount of sCD14-ST produced. […] After incubating at 37° C. for 2 hours, the supernatant was collected by centrifugation and sCD14-ST was measured by the assay system of Example 3-(2).

SMILES	sCD14-ST production (effect of inhibitor) [1]	Production of the rabbit sCD14-ST (effect of inhibitor) [2]	production of the high molecular weight sCD14 [3]	sCD14-ST production [4]
C=C1[C@@H](C)[C@H]2[C@H](Cc3ccccc3)NC(=O)[C@]23[C@H](OC(C)=O)/C=C/[C@@](C)(O)C(=O)[C@@H](C)C/C=C/[C@H]3[C@@H]1O [Cytochalasin D]	inhibited the sCD14-ST production	inhibited	–	–
COC[C@H]1OC(=O)c2coc3c2[C@@]1(C)C1=C(C3=O)[C@@H]2CCC(=O)[C@@]2(C)C[C@H]1OC(C)=O [Wortomanin]	inhibited the sCD14-ST production	inhibited	–	–
CCCCCCCCCCCCCC(=O)O[C@@H]1[C@@H](C)[C@@]2(O)[C@@H](C=C(CO)C[C@]3(O)C(=O)C(C)=C[C@@H]23)[C@@H]2C(C)(C)[C@]12OC(C)=O [PMA, phorbol myristate acetate]	–	–	increase in the production of the high molecular weight sCD14 was recognized	increase in the sCD14-ST was not recognized
CSCC[C@H](NC=O)C(=O)N[C@@H](CC(C)C)C(=O)N[C@@H](Cc1ccccc1)C(=O)O [fMLP, formyl methionyl leucyl phenylalanine]	–	–	–	increase in the sCD14-ST was not recognized
